Measured values as given in US20240199605A1, “SMALL MOLECULAR INHIBITORS OF NF-kB INDUCING KINASE” (Janssen Pharmaceutica NV, priority 2019, published 2024).
Like-named read-outs stand apart in the source and are kept apart here.

What was measured:
[1] = biological target: recombinant human NF-kappaB-inducing kinase (NIK/MAP3K14) (Homo sapiens (Human), UniProt Q99558); assay: Inhibition of auto-phosphorylation of recombinant human NIK/MAP3K14 (AlphaScreen); format: biochemical; conditions: NIK auto-phosphorylation, 5 μM ATP, 1 nM NIK, 2 h at 25° C.; average of values
recombinant human NF-kappaB-inducing kinase (NIK/MAP3K14), sequence (Q99558 whole entry): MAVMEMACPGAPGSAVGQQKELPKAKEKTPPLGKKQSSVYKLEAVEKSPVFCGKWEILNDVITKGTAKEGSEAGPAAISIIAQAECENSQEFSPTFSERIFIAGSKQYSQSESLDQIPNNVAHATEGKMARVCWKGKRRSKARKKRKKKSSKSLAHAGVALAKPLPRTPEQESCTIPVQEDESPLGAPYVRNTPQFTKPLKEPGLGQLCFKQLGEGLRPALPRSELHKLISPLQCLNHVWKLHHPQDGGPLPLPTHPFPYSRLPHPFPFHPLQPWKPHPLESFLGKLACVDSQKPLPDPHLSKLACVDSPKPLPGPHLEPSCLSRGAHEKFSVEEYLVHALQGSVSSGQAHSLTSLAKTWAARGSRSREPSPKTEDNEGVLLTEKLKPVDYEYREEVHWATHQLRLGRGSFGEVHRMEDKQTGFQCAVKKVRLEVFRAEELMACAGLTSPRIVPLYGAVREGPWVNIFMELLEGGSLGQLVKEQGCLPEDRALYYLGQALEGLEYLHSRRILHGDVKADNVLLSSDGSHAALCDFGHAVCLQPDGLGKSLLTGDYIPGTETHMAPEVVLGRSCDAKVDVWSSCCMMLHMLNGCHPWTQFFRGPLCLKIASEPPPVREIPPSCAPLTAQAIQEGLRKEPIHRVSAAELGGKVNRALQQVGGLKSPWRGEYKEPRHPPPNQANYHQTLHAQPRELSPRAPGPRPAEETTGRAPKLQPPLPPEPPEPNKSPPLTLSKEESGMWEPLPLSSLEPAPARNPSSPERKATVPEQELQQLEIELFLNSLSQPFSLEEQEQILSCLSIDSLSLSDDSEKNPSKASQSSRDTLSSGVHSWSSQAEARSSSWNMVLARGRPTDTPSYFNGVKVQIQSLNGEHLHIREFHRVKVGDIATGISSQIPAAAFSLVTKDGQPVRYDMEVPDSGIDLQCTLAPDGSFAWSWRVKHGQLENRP
Procedure, shortened: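 GST-tagged NIK (1 nM) auto-phosphorylated with 5 μM ATP for 2 h at 25° C. in 50 mM Tris pH 7.5, 5 mM MgCl2, 1 mM EGTA, 1 mM DTT, 0.1 mM Na3VO4, 0.01% Tween 20 (0.7% DMSO). Detected by AlphaScreen via anti-phospho-IKK Ser176/180 antibody; IC50 from sigmoidal fit of % inhibition versus log concentration.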

[2] = test system: p-IKKα levels in L363 (NIK translocated multiple myeloma) cells; assay: Effect of compounds on p-IKKα levels in L363 cells (AlphaLISA SureFire Ultra); format: cell-based, human; conditions: BAFF stimulated, MG132, 6 h, average of values, read-out: Assay 2 IC50
Procedure, shortened: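 Inhibition of p-IKKα (Ser176/180) read by AlphaLISA after 6 h, 37 °C compound exposure (11-point 1:3 series, 0.3% DMSO) of L363 cells pre-incubated overnight ± 250 ng/ml BAFF and plated ± BAFF ± 10 μM MG132. Normalised to BAFF/MG132/DMSO and unstimulated controls; IC50 by sigmoidal fitting, duplicates.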

## [2H]C([2H])([2H])N1CCC(O)(C#Cc2cccc(-c3ncc4c(C)cnc(N)c4n3)c2)C1=O (stereo in doubt) [Example 87, (R)-3-[2-[3-(8-Amino-5-methyl-pyrido[3,4-d]pyrimidin-2-yl)phenyl]ethynyl]-3-hydroxy-1-(trideuteriomethyl)pyrrolidin-2-one]
[1]
  IC50: ≤ 0.5 nM
[2]; Homo sapiens, L-363, 6 h
  IC50: 6 nM

## [2H]C([2H])([2H])N1CC[C@@](O)(C#Cc2ccc(C)c(-c3ccc4ccnc(N)c4c3)c2)C1=O [Example 70, (R)-3-[2-[3-(1-Amino-7-isoquinolyl)-4-methyl-phenyl]ethynyl]-3-hydroxy-1-(trideuteriomethyl)pyrrolidin-2-one]
[1]
  IC50: 26 nM
[2]
  IC50: 2210 nM

## Cc1ccc(C#C[C@]2(O)CCn3ccnc32)cc1-c1nc2c(N)ncnc2s1 [Example 183, (R)-7-[2-[3-(7-Aminothiazolo[5,4-d]pyrimidin-2-yl)-4-methyl-phenyl]ethynyl]-5,6-dihydropyrrolo[1,2-a]imidazol-7-ol]
[1]
  IC50: ≤ 0.5 nM
[2]; Homo sapiens, L-363, 6 h
  IC50: 6.6 nM

## [2H]C([2H])([2H])c1cc(-c2cccc(C#C[C@]3(O)CCN(C)C3=O)c2)nc2c(N)ncnc12 [Example 286, (R)-3-((3-(4-Amino-8-(methyl-da)pyrido[3,2-d]pyrimidin-6-yl)phenyl)ethynyl)-3-hydroxy-1-methylpyrrolidin-2-one]
[1]
  IC50: 0.9 nM
[2]; Homo sapiens, L-363, 6 h
  IC50: 3.1 nM

## CN1CC[C@@](O)(C#Cc2cccc(-c3ccc4ncnc(N)c4c3)c2)C1=O [Example 16, (R)-3-[2-[3-(4-Aminoquinazolin-6-yl)phenyl]ethynyl]-3-hydroxy-1-methyl-pyrrolidin-2-one]
[1]
  IC50: 0.7 nM
[2]; Homo sapiens, L-363, 6 h
  IC50: 57 nM

## Cc1nc(N)c2nc(-c3cccc(C#C[C@@]4(O)C[C@@H](C)N(C)C4=O)c3)ccc2n1 [Example 267, (3S,5R)-3-((3-(4-Amino-2-methylpyrido[3,2-d]pyrimidin-6-yl)phenyl)ethynyl)-3-hydroxy-1,5-dimethylpyrrolidin-2-one]
[1]
  IC50: 385 nM
[2]; Homo sapiens, L-363, 6 h
  IC50: 2820 nM

## CC(C)Cc1cnc(N)c2nc(-c3cccc(C#C[C@]4(O)CCN(C)C4=O)c3)ncc12 [Example 130, (R)-3-((3-(8-Amino-5-isobutylpyrido[3,4-d]pyrimidin-2-yl)phenyl)ethynyl)-3-hydroxy-1-methylpyrrolidin-2-one]
[1]
  IC50: 0.7 nM
[2]; Homo sapiens, L-363, 6 h
  IC50: 58 nM

## Nc1ncnc2cnc(-c3cccc(C#C[C@]4(O)CCn5ccnc54)c3)nc12 [Example 146, (R)-7-[2-[3-(4-Aminopyrimido[5,4-d]pyrimidin-6-yl)phenyl]ethynyl]-5,6-dihydropyrrolo[1,2-a]imidazol-7-ol]
[1]
  IC50: ≤ 0.5 nM
[2]; Homo sapiens, L-363, 6 h
  IC50: 2.7 nM

## CNc1cc(-c2cccc(C#C[C@]3(O)CCN(C)C3=O)c2)nc2c(N)ncnc12 [Example 296, (R)-3-[2-[3-[4-Amino-8-(methylamino)pyrido[3,2-d]pyrimidin-6-yl]phenyl]ethynyl]-3-hydroxy-1-methyl-pyrrolidin-2-one]
[1]
  IC50: ≤ 0.5 nM
[2]; Homo sapiens, L-363, 6 h
  IC50: 6.9 nM

## Cc1nc(N)c2nc(-c3cccc(C#C[C@](C)(O)c4cnc(C)s4)c3)ccc2n1 [Example 157, (S)-4-(3-(4-Amino-2-methylpyrido[3,2-d]pyrimidin-6-yl)phenyl)-2-(2-methylthiazol-5-yl)but-3-yn-2-ol]
[1]
  IC50: 3790 nM
[2]; Homo sapiens, L-363, 6 h
  IC50: > 5000 nM

## Cc1nc(N)c2nc(-c3cccc(C#C[C@](C)(O)c4scnc4C)c3)ccc2n1 [Example 162, (S)-4-(3-(4-Amino-2-methylpyrido[3,2-d]pyrimidin-6-yl)phenyl)-2-(4-methylthiazol-5-yl)but-3-yn-2-ol]
[1]
  IC50: > 5000 nM
[2]; Homo sapiens, L-363, 6 h
  IC50: > 5000 nM

## CN1CC[C@@](O)(C#Cc2cccc(-c3ncc4c(Cl)cnc(N)c4n3)c2)C1=O [Example 103, (R)-3-((3-(8-Amino-5-chloropyrido[3,4-d]pyrimidin-2-yl)phenyl)ethynyl)-3-hydroxy-1-methylpyrrolidin-2-one]
[1]
  IC50: ≤ 0.5 nM
[2]; Homo sapiens, L-363, 6 h
  IC50: 5.8 nM

## [2H]c1nc(N)c2nc(-c3cccc(C#C[C@]4(O)CCN(C)C4=O)c3)cc(C3CCCC3)c2n1 [Example 277, (R)-3-((3-(4-Amino-8-cyclopentylpyrido[3,2-d]pyrimidin-6-yl-2-d)phenyl)ethynyl)-3-hydroxy-1-methylpyrrolidin-2-one]
[1]
  IC50: 0.7 nM
[2]; Homo sapiens, L-363, 6 h
  IC50: 13 nM

## Cc1nc(N)c2nc(-c3cccc(C#C[C@]4(O)CCN(C)C4=O)c3)cnc2n1 [Example 148, (R)-3-[2-[3-(4-Amino-2-methyl-pteridin-6-yl)phenyl]ethynyl]-3-hydroxy-1-methyl-pyrrolidin-2-one]
[1]
  IC50: 1.4 nM
[2]; Homo sapiens, L-363, 6 h
  IC50: 370 nM

## COc1ccc(C#C[C@]2(O)CCN(C)C2=O)cc1-c1ccc2ncnc(N)c2n1 [Example 139, (R)-3-((3-(4-Aminopyrido[3,2-d]pyrimidin-6-yl)-4-methoxyphenyl)ethynyl)-3-hydroxy-1-methylpyrrolidin-2-one]
[1]
  IC50: 2.9 nM
[2]; Homo sapiens, L-363, 6 h
  IC50: 22 nM

## CN1CC[C@@](O)(C#Cc2cccc(-c3cc(OC4CC4)c4ncnc(N)c4n3)c2)C1=O [Example 304, (R)-3-[2-[3-[4-Amino-8-(cyclopropoxy)pyrido[3,2-d]pyrimidin-6-yl]phenyl]ethynyl]-3-hydroxy-1-methyl-pyrrolidin-2-one]
[1]
  IC50: 0.6 nM
[2]; Homo sapiens, L-363, 6 h
  IC50: 15 nM

## Cc1nc(N)c2nc(-c3cccc(C#C[C@@]4(O)C(=O)N(C)C[C@H]4C)c3)ccc2n1 (stereo in doubt) [Example 292, (3R,4R*)-3-((3-(4-Amino-2-methylpyrido[3,2-d]pyrimidin-6-yl)phenyl)ethynyl)-3-hydroxy-1,4-dimethylpyrrolidin-2-one]
[1]
  IC50: 22 nM
[2]; Homo sapiens, L-363, 6 h
  IC50: 660 nM

## CN1CC[C@@](O)(C#Cc2cccc(-c3ccc4ccnc(N5CCC5)c4c3)c2)C1=O [Example 234, (R)-3-((3-(1-(Azetidin-1-yl)isoquinolin-7-yl)phenyl)ethynyl)-3-hydroxy-1-methylpyrrolidin-2-one]
[1]
  IC50: 1800 nM
[2]; Homo sapiens, L-363, 6 h
  IC50: > 5000 nM

## CN1CC[C@@](O)(C#Cc2cccc(-c3ncc4ncnc(N)c4n3)c2)C1=O [Example 13, (R)-3-[2-[3-(4-Aminopyrimido[5,4-d]pyrimidin-6-yl)phenyl]ethynyl]-3-hydroxy-1-methyl-pyrrolidin-2-one]
[1]
  IC50: ≤ 0.5 nM
[2]; Homo sapiens, L-363, 6 h
  IC50: 2.8 nM

## CN1CC[C@@](O)(C#Cc2cccc(-c3ccc4ncnc(N5CCCCC5)c4n3)c2)C1=O [Example 225, (R)-3-Hydroxy-1-methyl-3-((3-(4-(piperidin-1-yl)pyrido[3,2-d]pyrimidin-6-yl)phenyl)ethynyl)pyrrolidin-2-one]
[1]
  IC50: 6.1 nM
[2]; Homo sapiens, L-363, 6 h
  IC50: 600 nM

## CN1CC[C@@](O)(C#Cc2cccc(-c3ncc4c(I)cnc(N)c4n3)c2)C1=O [Example 102, (R)-3-((3-(8-Amino-5-iodopyrido[3,4-d]pyrimidin-2-yl)phenyl)ethynyl)-3-hydroxy-1-methylpyrrolidin-2-one]
[1]
  IC50: ≤ 0.5 nM
[2]; Homo sapiens, L-363, 6 h
  IC50: 11 nM

## [2H]c1nc(N)c2nc(-c3cc(C#C[C@]4(O)CCN(C)C4=O)ccc3C)ccc2n1 [Example 149, (R)-3-((3-(4-Aminopyrido[3,2-d]pyrimidin-6-yl-2-d)-4-methylphenyl)ethynyl)-3-hydroxy-1-methylpyrrolidin-2-one]
[1]
  IC50: ≤ 0.5 nM
[2]; Homo sapiens, L-363, 6 h
  IC50: 17 nM

## Nc1ncnc2cnc(-c3cccc(C#C[C@@]4(O)CCc5cccnc54)c3)nc12 [Example 155, (S)-7-((3-(8-Aminopyrimido[5,4-d]pyrimidin-2-yl)phenyl)ethynyl)-6,7-dihydro-5H-cyclopenta[b]pyridin-7-ol]
[1]
  IC50: ≤ 0.5 nM
[2]; Homo sapiens, L-363, 6 h
  IC50: 6.1 nM

## CN1CC[C@@](O)(C#Cc2cccc(-c3ccc4ncnc(C#N)c4n3)c2)C1=O [Example 279, (R)-6-(3-((3-Hydroxy-1-methyl-2-oxopyrrolidin-3-yl)ethynyl)phenyl)pyrido[3,2-d]pyrimidine-4-carbonitrile]
[1]
  IC50: 1510 nM
[2]; Homo sapiens, L-363, 6 h
  IC50: > 5000 nM

## Cc1cc(-c2cccc(C#C[C@]3(O)CCN(C)C3=O)c2)nc2c(N)ncnc12 [Example 28, (R)-3-((3-(4-Amino-8-methylpyrido[3,2-d]pyrimidin-6-yl)phenyl)ethynyl)-3-hydroxy-1-methylpyrrolidin-2-one]
[1]
  IC50: ≤ 0.5 nM
[2]; Homo sapiens, L-363, 6 h
  IC50: 0.7 nM

## CN1CC[C@@](O)(C#Cc2cccc(-c3cc(N4CC(F)(F)C4)c4ncnc(N)c4n3)c2)C1=O [Example 300, (R)-3-[2-[3-[4-Amino-8-(3,3-difluoroazetidin-1-yl)pyrido[3,2-d]pyrimidin-6-yl]phenyl]ethynyl]-3-hydroxy-1-methyl-pyrrolidin-2-one]
[1]
  IC50: 1.2 nM
[2]; Homo sapiens, L-363, 6 h
  IC50: 39 nM

## Cc1nc(N)c2nc(-c3cccc(C#C[C@]4(O)CCN(C)C4=O)c3)nc(C)c2n1 [Example 156, (R)-3-((3-(8-Amino-4,6-dimethylpyrimido[5,4-d]pyrimidin-2-yl)phenyl)ethynyl)-3-hydroxy-1-methylpyrrolidin-2-one]
[1]
  IC50: 1.1 nM
[2]; Homo sapiens, L-363, 6 h
  IC50: 16 nM

## Cc1ccc(C#C[C@]2(O)CCc3cccnc32)cc1-c1ncc2ccnc(N)c2n1 [Example 75, (R)-7-((3-(8-Aminopyrido[3,4-d]pyrimidin-2-yl)-4-methylphenyl)ethynyl)-6,7-dihydro-5H-cyclopenta[b]pyridin-7-ol]
[1]
  IC50: 1.3 nM
[2]; Homo sapiens, L-363, 6 h
  IC50: 84 nM

## CN1CC[C@@](O)(C#Cc2cccc(-c3cc(-c4ccccc4)c4ncnc(N)c4n3)c2)C1=O [Example 310, (R)-3-((3-(4-Amino-8-phenylpyrido[3,2-d]pyrimidin-6-yl)phenyl)ethynyl)-3-hydroxy-1-methylpyrrolidin-2-one]
[1]
  IC50: 0.7 nM
[2]; Homo sapiens, L-363, 6 h
  IC50: 13 nM
